According to the NIST ThermoML archive (doi:10.1016/j.tca.2011.11.025):
± gives the expanded uncertainty stated by the source.

Assay: excess molar enthalpy (molar enthalpy of mixing); xn = mol fraction of the nth substance listed
Details: 308.15 K, 101 kPa, Liquid, 2-drop calorimeter

For Cc1cccc(C)c1 [1,3-dimethylbenzene] + C1COCCO1, the excess molar enthalpy (x2 = 0.0638) was 0.0149 ± 0.000406 kcal/mol, the excess molar enthalpy (x2 = 0.1239) was 0.0289 ± 0.000693 kcal/mol and the excess molar enthalpy (x2 = 0.1845) was 0.0429 ± 0.00098 kcal/mol. It also gave an excess molar enthalpy (x2 = 0.223) of 0.0496 ± 0.00112 kcal/mol, an excess molar enthalpy (x2 = 0.2742) of 0.0593 ± 0.00131 kcal/mol and an excess molar enthalpy (x2 = 0.3357) of 0.0675 ± 0.00151 kcal/mol. The excess molar enthalpy (x2 = 0.4212) was 0.0759 ± 0.00167 kcal/mol, the excess molar enthalpy (x2 = 0.4781) was 0.0796 ± 0.00174 kcal/mol and the excess molar enthalpy (x2 = 0.5516) was 0.0797 ± 0.00174 kcal/mol. For the same compound, the excess molar enthalpy (x2 = 0.6212) was 0.0748 ± 0.00165 kcal/mol, the excess molar enthalpy (x2 = 0.6836) was 0.0687 ± 0.00153 kcal/mol and the excess molar enthalpy (x2 = 0.7583) was 0.0576 ± 0.00129 kcal/mol. It also gave an excess molar enthalpy (x2 = 0.7797) of 0.0534 ± 0.0012 kcal/mol, an excess molar enthalpy (x2 = 0.8183) of 0.0467 ± 0.00105 kcal/mol and an excess molar enthalpy (x2 = 0.8884) of 0.0298 ± 0.000717 kcal/mol. It also gave an excess molar enthalpy (x2 = 0.9481) of 0.0144 ± 0.000406 kcal/mol.

For Cc1ccc(C)cc1 [1,4-dimethylbenzene] + C1COCCO1, the excess molar enthalpy (x2 = 0.0757) was 0.0122 ± 0.000359 kcal/mol, the excess molar enthalpy (x2 = 0.1355) was 0.0244 ± 0.000598 kcal/mol and the excess molar enthalpy (x2 = 0.1984) was 0.0362 ± 0.000837 kcal/mol. It also gave an excess molar enthalpy (x2 = 0.2656) of 0.0481 ± 0.0011 kcal/mol, an excess molar enthalpy (x2 = 0.3025) of 0.0538 ± 0.00122 kcal/mol and an excess molar enthalpy (x2 = 0.3648) of 0.062 ± 0.00139 kcal/mol. The excess molar enthalpy (x2 = 0.4154) was 0.0674 ± 0.00151 kcal/mol, the excess molar enthalpy (x2 = 0.4759) was 0.0705 ± 0.00155 kcal/mol and the excess molar enthalpy (x2 = 0.5524) was 0.0717 ± 0.00158 kcal/mol. For the same compound, the excess molar enthalpy (x2 = 0.6251) was 0.0687 ± 0.00153 kcal/mol, the excess molar enthalpy (x2 = 0.6956) was 0.0625 ± 0.00139 kcal/mol and the excess molar enthalpy (x2 = 0.7415) was 0.0563 ± 0.00127 kcal/mol. For the same compound, the excess molar enthalpy (x2 = 0.7867) was 0.0487 ± 0.0011 kcal/mol, the excess molar enthalpy (x2 = 0.8521) was 0.0355 ± 0.000837 kcal/mol and the excess molar enthalpy (x2 = 0.8953) was 0.026 ± 0.000621 kcal/mol. It also gave an excess molar enthalpy (x2 = 0.9326) of 0.0168 ± 0.000454 kcal/mol.
